# Tests used:
# NCI-H460 = assay: Cytotoxicity against human NCI-H460 cells assessed as growth level at 10 uM after 48 hrs by SRB assay; assay type: functional
# [1] = Cytotoxicity against human HCT116 cells assessed as growth level at 10 uM after 48 hrs by SRB assay; assay type: functional, HCT-116
# KM12 = assay: Cytotoxicity against human KM12 cells assessed as growth level at 10 uM after 48 hrs by SRB assay; assay type: functional
# [2] = Cytotoxicity against human SW620 cells assessed as growth level at 10 uM after 48 hrs by SRB assay; assay type: functional, SW-620
# [3] = Cytotoxicity against human SNB19 cells assessed as growth level at 10 uM after 48 hrs by SRB assay; assay type: functional, SNB-19
# SK-MEL-28 = assay: Cytotoxicity against human SK-MEL-28 cells assessed as growth level at 10 uM after 48 hrs by SRB assay; assay type: functional
# [4] = Cytotoxicity against human UACC257 cells assessed as growth level at 10 uM after 48 hrs by SRB assay; assay type: functional, UACC-257
# [5] = Cytotoxicity against human SKOV3 cells assessed as growth level at 10 uM after 48 hrs by SRB assay; assay type: functional, SK-OV-3
# [6] = Cytotoxicity against human UO31 cells assessed as growth level at 10 uM after 48 hrs by SRB assay; assay type: functional, UO-31
# MCF7 = assay: Cytotoxicity against human MCF7 cells assessed as growth level at 10 uM after 48 hrs by SRB assay; assay type: functional
# [7] = Cytotoxicity against human Hs578T cells assessed as growth level at 10 uM after 48 hrs by SRB assay; assay type: functional, Hs-578T
# T47D = assay: Cytotoxicity against human T47D cells assessed as growth level at 10 uM after 48 hrs by SRB assay; assay type: functional
# MDA-MB-468 [8] = assay: Cytotoxicity against human MDA-MB-468 cells assessed as growth level at 10 uM after 48 hrs by SRB assay; assay type: functional
# [9] = Cytotoxicity against human MOLT4 cells assessed as growth inhibition at 10 uM after 48 hrs by SRB assay; assay type: functional; settings: MOLT-4, 48 h, read-out: GI
# NCI-H23 = assay: Cytotoxicity against human NCI-H23 cells assessed as growth inhibition at 10 uM after 48 hrs by SRB assay; assay type: functional; settings: NCI-H23, 48 h, read-out: GI
# NCI-H322M = assay: Cytotoxicity against human NCI-H322M cells assessed as growth inhibition at 10 uM after 48 hrs by SRB assay; assay type: functional; settings: read-out: GI
# [10] = Cytotoxicity against human COLO205 cells assessed as growth inhibition at 10 uM after 48 hrs by SRB assay; assay type: functional; settings: COLO 205, 48 h, read-out: GI
# [11] = Cytotoxicity against human SNB19 cells assessed as growth inhibition at 10 uM after 48 hrs by SRB assay; assay type: functional; settings: SNB-19, 48 h, read-out: GI
# [12] = Cytotoxicity against human SNB75 cells assessed as growth inhibition at 10 uM after 48 hrs by SRB assay; assay type: functional; settings: SNB-75, 48 h, read-out: GI
# [13] = Cytotoxicity against human LOXIMVI cells assessed as growth inhibition at 10 uM after 48 hrs by SRB assay; assay type: functional; settings: LOX IMVI, read-out: GI
# [14] = Cytotoxicity against human OVCAR8 cells assessed as growth inhibition at 10 uM after 48 hrs by SRB assay; assay type: functional; settings: OVCAR-8, 48 h, read-out: GI
# [15] = Cytotoxicity against human Caki1 cells assessed as growth inhibition at 10 uM after 48 hrs by SRB assay; assay type: functional; settings: CAKI-1, 48 h, read-out: GI
# [16] = Cytotoxicity against human TK10 cells assessed as growth inhibition at 10 uM after 48 hrs by SRB assay; assay type: functional; settings: TK-10, 48 h, read-out: GI
# [17] = Cytotoxicity against human BT549 cells assessed as growth inhibition at 10 uM after 48 hrs by SRB assay; assay type: functional; settings: BT-549, 48 h, read-out: GI
# K562 = assay: Cytotoxicity against human K562 cells assessed as growth level at 10 uM after 48 hrs by SRB assay; assay type: functional
# CCRF-CEM = assay: Cytotoxicity against human CCRF-CEM cells after 48 hrs by SRB assay; assay type: functional
# [18] = Cytotoxicity against human HL-60(TB) cells after 48 hrs by SRB assay; assay type: functional; settings: HL-60, 48 h
# [19] = Cytotoxicity against human MOLT4 cells after 48 hrs by SRB assay; assay type: functional; settings: MOLT-4, 48 h
# SR = assay: Cytotoxicity against human SR cells after 48 hrs by SRB assay; assay type: functional
# EKVX = assay: Cytotoxicity against human EKVX cells after 48 hrs by SRB assay; assay type: functional
# [20] = Cytotoxicity against human SW620 cells after 48 hrs by SRB assay; assay type: functional; settings: SW-620, 48 h
# [21] = Cytotoxicity against human SF295 cells after 48 hrs by SRB assay; assay type: functional; settings: SF-295, 48 h
# M14 = assay: Cytotoxicity against human M14 cells after 48 hrs by SRB assay; assay type: functional; settings: M14, 48 h
# [22] = Cytotoxicity against human OVCAR3 cells after 48 hrs by SRB assay; assay type: functional; settings: OVCAR-3, 48 h
# [23] = Cytotoxicity against human PC3 cells after 48 hrs by SRB assay; assay type: functional; settings: PC-3, 48 h
# [24] = Cytotoxicity against human DU145 cells after 48 hrs by SRB assay; assay type: functional; settings: DU-145, 48 h
# [25] = Cytotoxicity against human BT549 cells after 48 hrs by SRB assay; assay type: functional; settings: BT-549, 48 h
# MDA-MB-468 [26] = assay: Cytotoxicity against human MDA-MB-468 cells after 48 hrs by SRB assay; assay type: functional; settings: MDA-MB-468, 48 h
# [27] = Cytotoxicity against human HL-60(TB) cells assessed as growth inhibition at 10 uM after 48 hrs by SRB assay; assay type: functional; settings: HL-60, 48 h, read-out: GI
# [28] = Cytotoxicity against human HOP92 cells assessed as growth inhibition at 10 uM after 48 hrs by SRB assay; assay type: functional; settings: HOP-92, 48 h, read-out: GI
# [29] = read-out: LC50 (the source's name)
smiles,measurement,setting,value
C=C1CC[C@@H]2[C@](C)(CO)[C@H](O)CC[C@@]2(C)[C@@H]1C/C=C1/C(=O)OC[C@H]1O [ANDROGRAPHOLIDE],Activity,NCI-H460,97.98%
same,Activity,[1],60.01%
same,Activity,KM12,80.24%
same,Activity,[2],44.29%
same,Activity,[3],88.03%
same,Activity,SK-MEL-28,95.46%
same,Activity,[4],76.51%
same,Activity,[5],103.76%
same,Activity,[6],89.6%
same,Activity,MCF7,57.55%
same,Activity,[7],110.33%
same,Activity,T47D,87.76%
same,Activity,MDA-MB-468 [8],42%
same,inhibition of growth at 10 µM,[9],1.89%
same,inhibition of growth at 10 µM,NCI-H23,2.11%
same,inhibition of growth at 10 µM,NCI-H322M,7.26%
same,inhibition of growth at 10 µM,[10],5.1%
same,inhibition of growth at 10 µM,[11],12%
same,inhibition of growth at 10 µM,[12],38%
same,inhibition of growth at 10 µM,[13],78.2%
same,inhibition of growth at 10 µM,[14],15.5%
same,inhibition of growth at 10 µM,[15],3.3%
same,inhibition of growth at 10 µM,[16],2.51%
same,inhibition of growth at 10 µM,[17],12.9%
same,Activity,K562,65.53%
C=C1CC[C@@H]2[C@](C)(COC(C)=O)[C@H](OC(C)=O)CC[C@@]2(C)[C@@H]1CC(Sc1ccccc1)C1=CCOC1=O (mixture of isomers),Activity,NCI-H460,21.71%
same,Activity,[1],-34.58%
same,Activity,KM12,18.58%
same,Activity,[2],0.83%
same,Activity,[3],51.79%
same,Activity,SK-MEL-28,6.34%
same,Activity,[4],29.37%
same,Activity,[5],57.71%
same,Activity,[6],35.65%
same,Activity,MCF7,2.14%
same,Activity,[7],54.23%
same,Activity,T47D,7.94%
same,Activity,MDA-MB-468 [8],-61.07%
same,GI50,CCRF-CEM,0.26 µM
same,TGI,CCRF-CEM,1.19 µM
same,CC50,CCRF-CEM; [29],> 100 µM
same,GI50,[18],0.49 µM
same,TGI,[18],2.27 µM
same,CC50,[18]; [29],9.76 µM
same,GI50,[19],1.48 µM
same,LC50,[19],> 100 µM
same,TGI,[19],6.15 µM
same,GI50,SR,0.55 µM
same,TGI,SR,3.66 µM
same,CC50,SR; [29],> 100 µM
same,GI50,EKVX,2.43 µM
same,LC50,EKVX,> 100 µM
same,TGI,EKVX,10.4 µM
same,GI50,[20],0.71 µM
same,LC50,[20],> 100 µM
same,TGI,[20],3.64 µM
same,GI50,[21],4.12 µM
same,LC50,[21],> 100 µM
same,TGI,[21],27.3 µM
same,GI50,M14,1.47 µM
same,LC50,M14,9.23 µM
same,TGI,M14,3.69 µM
same,GI50,[22],1.14 µM
same,LC50 (concentration killing 50% of cells),[22],4.92 µM
same,TGI,[22],2.37 µM
same,GI50,[23],1.84 µM
same,LC50,[23],> 100 µM
same,TGI,[23],10.1 µM
same,GI50,[24],1.41 µM
same,LC50 (concentration killing 50% of cells),[24],5.33 µM
same,TGI,[24],2.74 µM
same,GI50,[25],1.59 µM
same,TGI,[25],3.99 µM
same,CC50,[25]; [29],> 100 µM
same,GI50,MDA-MB-468 [26],1.41 µM
same,LC50,MDA-MB-468 [26],7.53 µM
same,TGI,MDA-MB-468 [26],3.26 µM
same,Activity,K562,3.95%
C=C1CC[C@@H]2[C@](C)(COC(C)=O)[C@H](OC(C)=O)CC[C@@]2(C)[C@@H]1CC(NCCCC)C1=CCOC1=O (mixture of isomers),Activity,NCI-H460,91.62%
same,Activity,[1],80.22%
same,Activity,KM12,92.79%
same,Activity,[2],95.01%
same,Activity,[3],87.32%
same,Activity,SK-MEL-28,98.09%
same,Activity,[4],85.16%
same,Activity,[5],92.42%
same,Activity,[6],84%
same,Activity,MCF7,82.86%
same,Activity,[7],97.68%
same,Activity,T47D,71.96%
same,Activity,MDA-MB-468 [8],66.18%
same,inhibition of growth at 10 µM,[27],6.18%
same,inhibition of growth at 10 µM,[9],44.5%
same,inhibition of growth at 10 µM,[28],46.7%
same,inhibition of growth at 10 µM,NCI-H23,10.3%
same,inhibition of growth at 10 µM,NCI-H322M,3.78%
same,inhibition of growth at 10 µM,[10],17.9%
same,inhibition of growth at 10 µM,[11],12.7%
same,inhibition of growth at 10 µM,[12],22.1%
same,inhibition of growth at 10 µM,[13],9.61%
same,inhibition of growth at 10 µM,[14],10.4%
same,inhibition of growth at 10 µM,[15],9.05%
same,inhibition of growth at 10 µM,[16],0.94%
same,inhibition of growth at 10 µM,[17],10.8%
same,Activity,K562,69.53%
